Laboratory results taken from paper PMC7155171, “Probing the Open Global Health Chemical Diversity Library for Multistage-Active Starting Points for Next-Generation Antimalarials” (ACS Infectious Diseases, 2020).
Read-outs that look alike come from different tables or passages of the source.

How the values were obtained:
Format in all cases: cell-based, Plasmodium falciparum
[1] = tested on: P. falciparum Dd2 (PfLuc) line expressing firefly luciferase, asexual blood stage; assay: microbe, parasite or virus in culture; conditions: Plasmodium falciparum
[2] = tested on: P. falciparum (NF54) stage V gametocytes; assay: Stage V gametocyte viability assay (MitoTracker Red CMXRos high content imaging); conditions: for inhibition at 2 µM: read-out: Stg V Gam primary screen: Inhibition % (2uM) (n=2)
P. falciparum Dd2 = assay: SYBR green I asexual blood stage proliferation assay (96 h); conditions: Plasmodium falciparum, DD2, 11-pt dose response, 96hr
[3] = DD2, read-out: CDD P. falciparum Luciferase ABS 11-pt Reconfirmation Dose Response (48hr): IC50 (μM), 11-pt dose response, 48hr
[4] = DD2, 8-pt dose response, 96hr, read-out: CDD P. falciparum Luciferase ABS 8-pt Reconfirmation Dose Response (96hr): IC50
[5] = DD2, 8-pt dose response, 96hr, read-out: CDD P. falciparum Luciferase ABS 8-pt Reconfirmation Dose Response (96hr): Maximum inhibition (%)
[6] = DD2, 11-pt dose response, 48hr, read-out: CDD P. falciparum Luciferase ABS 11-pt Reconfirmation Dose Response (48hr): Maximum inhibition (%)
[7] = DD2, 11-pt dose response, 96hr, read-out: CDD P. falciparum Luciferase ABS 11-pt Reconfirmation Dose Response (96hr): IC50
[8] = DD2, 11-pt dose response, 96hr, read-out: CDD P. falciparum Luciferase ABS 11-pt Reconfirmation Dose Response (96hr): Maximum inhibition (%)
[9] = Plasmodium falciparum, NF54, 72 h, read-out: GAM V IC50, stage V gametocytes, 72 h
[10] = Plasmodium falciparum, NF54, 72 h, read-out: Stg V Gam dose response IC50 (µM) (n=3), 10-point dose response, n=3, 72 h
[11] = Plasmodium falciparum, NF54, 72 h
[12] = DD2, 8-pt dose response, 96hr, read-out: P. falciparum Luciferase ABS 8-pt Reconfirmation Dose Response (96hr): IC50
[13] = Sybr Green I, read-out: CDD P. falciparum Sybr Green I ABS 11-pt Reconfirmation Dose Response (96hr): IC50
[14] = Sybr Green I, read-out: CDD P. falciparum Sybr Green I ABS 11-pt Reconfirmation Dose Response (96hr): Maximum inhibition (%)
[15] = DD2, read-out: P. falciparum Luciferase ABS 11-pt Reconfirmation Dose Response (48hr): IC50, 11-pt dose response, 48hr
[16] = DD2, 11-pt dose response, 48hr, read-out: P. falciparum Luciferase ABS 11-pt Reconfirmation Dose Response (48hr): Maximum inhibition (%)
[17] = DD2, 11-pt dose response, 96hr, read-out: P. falciparum Luciferase ABS 11-pt Reconfirmation Dose Response (96hr): IC50
[18] = DD2, 11-pt dose response, 96hr, read-out: P. falciparum Luciferase ABS 11-pt Reconfirmation Dose Response (96hr): Maximum inhibition (%)
[19] = read-out: P. falciparum Sybr Green I ABS 11-pt Reconfirmation Dose Response (96hr): IC50
[20] = read-out: P. falciparum Sybr Green I ABS 11-pt Reconfirmation Dose Response (96hr): Maximum inhibition (%)
[21] = Plasmodium falciparum, NF54, read-out: Stg V Gam dose response IC50 (µM) (n=3), 10-point dose response, n=3, 72 h
[22] = Plasmodium falciparum, NF54, Table S6, 2uM, n=2, 72 h
[23] = DD2, 8-pt dose response, 96hr, read-out: P. falciparum Luciferase ABS 8-pt Reconfirmation Dose Response (96hr): Maximum inhibition (%)

Structure (SMILES)	IC50 [1, 3]	IC50 [1, 4]	Emax [1, 5]	Emax [1, 6]	IC50 [1, 7]	Emax [1, 8]	IC50 [2, 9]	IC50 [2, 10]	inhibition at 2 µM [2, 11]	IC50 [1, 12]	IC50 (P. falciparum Dd2; [13])	Emax (P. falciparum Dd2; [14])	other results
Cc1cccc(CN2CCCC2c2cccc(Nc3nccs3)n2)c1 (stereo not shown) [DDD01057018, CC1=CC=CC(CN2CCCC2C2=CC=CC(NC3=NC=CS3)=N2)=C1]	0.914 µM	1.04 µM	94.6%	93.5%	0.53 µM	101%	0.12 µM	0.115 µM	90.4%				
CN(CCc1cccc2ccccc12)Cc1nc(N)nc(N(C)C)n1 [DDD01076782, CN(CCC1=C2C=CC=CC2=CC=C1)CC1=NC(N)=NC(=N1)N(C)C]								3.99 µM	74.3%	1.67 µM			
CN(Cc1ccsc1)c1nc(-c2ccccn2)nc2c1CCNCC2 [DDD01243664, CN(CC1=CSC=C1)C1=NC(=NC2=C1CCNCC2)C1=CC=CC=N1]	0.752 µM	0.52 µM	95.1%	89.8%	0.299 µM	98.7%	0.73 µM	0.732 µM	95.1%		872 nM	78.7%	IC50 ([1]; DD2, asexual blood stage, assay format not given, read-out: ABS IC50): < 1 µM; IC50 ([2]; read-out: GAM V IC50, stage V gametocytes, 72 h): < 1 µM
Cc1ccc(-c2nc(CNC(C)CCO)[nH]c2-c2ccccn2)cc1 (stereo not shown) [DDD01253542, CC(CCO)NCC1=NC(=C(N1)C1=CC=C(C)C=C1)C1=CC=CC=N1]							1.09 µM	1.09 µM	70.9%	1.81 µM			
NCC1CCN(C2CCN(c3ccc(-c4ccco4)cc3)CC2)C1 (stereo not shown) [DDD01252361, NCC1CCN(C1)C1CCN(CC1)C1=CC=C(C=C1)C1=CC=CO1]	3 µM	0.4 µM	95.9%	98.8%	1.8 µM	100%		1.9 µM	80.5%		605 nM	95.1%	
CNc1cc(C)nc(NC2CCCN(C3Cc4ccccc4C3)C2)n1 (stereo not shown) [DDD01243506, CNC1=CC(C)=NC(NC2CCCN(C2)C2CC3=CC=CC=C3C2)=N1]								2.91 µM	62.9%	1.33 µM			IC50 [1, 15]: 1.16 µM; Emax [1, 16]: 94.3%; IC50 [1, 17]: 0.707 µM; Emax [1, 18]: 100%; IC50 (P. falciparum Dd2; [19]): 957 nM; Emax (P. falciparum Dd2; [20]): 96.1%
OC1(CN2CCC(Oc3cccc(C(F)(F)F)c3)CC2)CCNC1 (stereo not shown) [DDD01245291, OC1(CN2CCC(CC2)OC2=CC=CC(=C2)C(F)(F)F)CCNC1]	2.08 µM	0.88 µM	93.8%	95.9%	0.958 µM	99.5%		2.42 µM	50.1%		1930 nM	96.4%	
CCc1ccc2nc(NCCCN(CCO)CCO)cc(C)c2c1 [DDD01247914, CCC1=CC=C2N=C(NCCCN(CCO)CCO)C=C(C)C2=C1]	3.94 µM	1.07 µM	91.1%	92.3%	1.68 µM	99.8%		3.72 µM	59.7%		3610 nM	94%	
CCc1[nH]c2c(CNc3nc(C)cc(NC)n3)cc(C)cc2c1C [DDD01251782, CCC1=C(C)C2=CC(C)=CC(CNC3=NC(C)=CC(NC)=N3)=C2N1]	0.765 µM	0.63 µM	95.7%		0.158 µM	98.4%					696 nM	98%	IC50 [2, 21]: 3.76 µM; inhibition at 2 µM [2, 22]: 53.8%; IC50 ([2]; Plasmodium falciparum, NF54, stage V gametocytes, 72 h, read-out: GAM V IC50): 3.76 µM
Cc1nn(C)cc1C1=NS(=O)(=O)N(C)C(C(=O)Nc2ccc(Br)cc2)=C1 [DDD01058697, CN1C=C(C(C)=N1)C1=NS(=O)(=O)N(C)C(=C1)C(=O)NC1=CC=C(Br)C=C1]	0.55 µM	0.2 µM	95.2%	99.4%	0.281 µM	101%					321 nM	99.9%	IC50 [2, 21]: 2.78 µM; inhibition at 2 µM [2, 22]: 53.2%
COc1ccc(C)cc1CN1CCC(c2cc3ncccc3cn2)CC1 [DDD01058767, COC1=CC=C(C)C=C1CN1CCC(CC1)C1=NC=C2C=CC=NC2=C1]	0.0507 µM	0.25 µM	96.3%	98.5%	0.0439 µM	100%		2.51 µM	85.5%		136 nM	101%	
CCN(CCN(C)C)c1nc(CCN)nc2sc(C)c(C)c12 [DDD01251823, CCN(CCN(C)C)C1=C2C(C)=C(C)SC2=NC(CCN)=N1]								4.42 µM	58.8%	1.8 µM			Emax [1, 23]: 92.8%
NC(=O)c1cccc2nc([C@H]3CCN(Cc4ccccn4)C3)[nH]c12 [DDD01025389, NC(=O)C1=C2NC(=NC2=CC=C1)[C@H]1CCN(CC2=CC=CC=N2)C1]	0.058 µM	0.0339 µM	98.4%		0.0101 µM	101%		0.125 µM			80.7 nM	86.6%	
CCc1[nH]c2c(CNc3cc(C)nc(NC)n3)cc(C)cc2c1C [DDD01250162, CCC1=C(C)C2=CC(C)=CC(CNC3=CC(C)=NC(NC)=N3)=C2N1]							4.9 µM	4.9 µM	64.1%	1.31 µM			IC50 [1, 15]: > 12.5 µM; Emax [1, 23]: 92.3%; Emax [1, 16]: 38.8%; IC50 [1, 17]: > 12.5 µM; Emax [1, 18]: 45.4%; IC50 (P. falciparum Dd2; [19]): 1550 nM; Emax (P. falciparum Dd2; [20]): 94.1%
CN(Cc1ccco1)C[C@H]1OC[C@@H]2CCN(Cc3ccccn3)C[C@@H]21 [DDD01033585, CN(C[C@H]1OC[C@@H]2CCN(CC3=CC=CC=N3)C[C@H]12)CC1=CC=CO1]								3.17 µM	76%	1.65 µM			Emax [1, 23]: 91.7%
Fc1cccc(C(NCc2ncc[nH]2)c2ccccn2)c1 (stereo not shown) [DDD01064153, FC1=CC=CC(=C1)C(NCC1=NC=CN1)C1=CC=CC=N1]	5.61 µM	0.45 µM		86.1%	0.644 µM	97.4%	1.55 µM	1.55 µM	63.2%		5580 nM	82.6%	
CSc1ccc(-c2nc(CN3CCC(CN)C3)c(C)o2)cc1 (stereo not shown) [DDD01250168, CSC1=CC=C(C=C1)C1=NC(CN2CCC(CN)C2)=C(C)O1]								2.42 µM	63%	1.6 µM			Emax [1, 23]: 93.1%
CC(C)N(CCNC(=O)c1[nH]nc2ccc(I)cc12)C(C)C [DDD01078603, CC(C)N(CCNC(=O)C1=C2C=C(I)C=CC2=NN1)C(C)C]								> 10 µM	53.7%				
CN1CCC(NCC(O)c2cccc(OCc3ccccc3)c2)CC1 (stereo not shown) [DDD01079164, CN1CCC(CC1)NCC(O)C1=CC=CC(OCC2=CC=CC=C2)=C1]								6.06 µM	53.3%				
Cc1cc(CN(C)c2nc(-c3ccccn3)nc3c2CCNCC3)n[nH]1 [DDD01255965, CN(CC1=CC(C)=NN1)C1=NC(=NC2=C1CCNCC2)C1=CC=CC=N1]							0.88 µM	0.875 µM	61.9%				IC50 ([1]; 96 h incubation, Dd2 luciferase, read-out: 96 hour Pfluc IC50): > 10 µM
COc1c(C)cnc(CN(C)C2CCCCC2)c1C [DDD01078822, COC1=C(C)C=NC(CN(C)C2CCCCC2)=C1C]								1.45 µM	84.8%				
O=C(CN1CCc2sccc2C1)Nc1ccnc2ccnn12 [DDD01078865, O=C(CN1CCC2=C(C1)C=CS2)NC1=CC=NC2=CC=NN12]								0.116 µM	96.4%				
Cc1nn(C)cc1CN1CCCC1c1cccc(Nc2nccs2)n1 (stereo not shown) [DDD01057079, CN1C=C(CN2CCCC2C2=CC=CC(NC3=NC=CS3)=N2)C(C)=N1]							0.58 µM	0.578 µM	84.4%				
